Experimental findings from patent US8791266B2, “Thyroid hormone β receptor agonist” (Mitsubishi Tanabe Pharma Corporation, priority 2009, dated 2014) are described below.

Assay [1] has as its target T1, Human Thyroid Hormone Receptor β1 (TRβ1) (Homo sapiens, UniProt P10828).
T1 construct: expressed in transfected cells; host or cells: 293T cells
T1 sequence (P10828 1-461): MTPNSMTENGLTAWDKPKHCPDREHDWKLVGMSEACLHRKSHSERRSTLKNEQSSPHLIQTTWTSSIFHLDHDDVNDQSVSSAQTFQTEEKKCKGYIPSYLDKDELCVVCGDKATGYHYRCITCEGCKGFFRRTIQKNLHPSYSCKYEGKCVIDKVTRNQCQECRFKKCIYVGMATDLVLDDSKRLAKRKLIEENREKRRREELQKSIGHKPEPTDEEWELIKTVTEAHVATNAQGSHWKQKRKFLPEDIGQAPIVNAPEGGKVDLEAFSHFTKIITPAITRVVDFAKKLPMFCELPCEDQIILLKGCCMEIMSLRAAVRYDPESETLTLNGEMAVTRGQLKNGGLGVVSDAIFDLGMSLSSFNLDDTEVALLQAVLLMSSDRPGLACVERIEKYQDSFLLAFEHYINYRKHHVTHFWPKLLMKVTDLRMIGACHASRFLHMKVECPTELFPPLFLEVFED
As to the kind of experiment: Transcription activation test of human thyroid hormone receptor β1 (luciferase reporter in 293T cells). In kind it is cell-based. As to conditions: EC50 of transcription activation on TRβ1, 293T cells, luciferase activity after 24 hr; read-out: TRβ. From the text:
(§1) Transcription Activation Test of Human Thyroid Hormone Receptors α1 (TRα1) and β1 (TRβ1)
(§2) pcDNA3.1 vector (manufactured by Invitrogen) that expresses TRα1 or β1 cloned from human liver-derived cells, and firefly luciferase expression vector pDR4-LuC (manufactured by Stratagene) having a thyroid hormone response sequence to be a reporter were transfected into 293T cells cultured in Dulbecco's modified Eagle medium (DMEM) containing 10% of activated carbon/dextran-treated fetal bovine serum (FBS) by using Lipofectamine2000 (manufactured by Invitrogen). After 16 hr, the cells were plated again in a 96 well plate, and the medium was exchanged with DMEM containing 0.1% activated carbon/dextran-treated FBS. After 3 more hr, a compound diluted with dimethyl sulfoxide solution was added, and the luciferase activity after 24 hr was measured.
(§3) As a positive control, 3,3′,5-triiodo-L-thyronine (T3), which is a biological ligand, was used. The transcription activation action of the compound on TRα1 and TRβ1 was shown by each EC50 value and the maximum luciferase activity value relative to the maximum luciferase activity value of T3 as 100.

Assay [2] deals with T2, Human Thyroid Hormone Receptor α1 (TRα1) (Homo sapiens, UniProt P10827).
T2 construct: expressed in transfected cells; host or cells: 293T cells
T2 sequence (P10827 1-410 isoform P10827-2): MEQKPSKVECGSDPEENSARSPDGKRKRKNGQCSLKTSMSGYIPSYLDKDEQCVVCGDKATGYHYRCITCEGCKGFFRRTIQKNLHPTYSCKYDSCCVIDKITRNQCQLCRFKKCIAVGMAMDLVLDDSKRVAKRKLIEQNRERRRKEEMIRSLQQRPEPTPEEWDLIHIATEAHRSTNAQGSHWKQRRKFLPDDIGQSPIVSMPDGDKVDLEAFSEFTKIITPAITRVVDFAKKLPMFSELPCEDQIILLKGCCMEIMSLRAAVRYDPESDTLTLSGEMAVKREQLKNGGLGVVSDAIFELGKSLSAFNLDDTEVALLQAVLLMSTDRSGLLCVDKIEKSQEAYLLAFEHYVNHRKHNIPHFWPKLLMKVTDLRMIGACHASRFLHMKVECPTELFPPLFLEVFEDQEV
The assay is described as follows: Transcription activation test of human thyroid hormone receptor α1 (luciferase reporter in 293T cells). The class given is cell-based. The note with it: ratio TRα/TRβ of the transcription activation EC50 values.
Excerpt: as §1, §2, §3
(In general: In a reporter assay the amount or activity of a reporter protein is the signal.)

`Cc1cccc(-c2nc(Cc3c(C)cc(OCc4noc(=O)[nH]4)c(F)c3C)ccc2O)c1F` [Example 60, 3-[(2-fluoro-4-{[6-(2-fluoro-3-methylphenyl)-5-hydroxypyridin-2-yl]methyl}-3,5-dimethylphenoxy)methyl]-1,2,4-oxadiazol-5(4H)-one]: the EC50 in assay [1] was determined as 0.6 nM. Further, in assay [2], the “selectivity (TRα/TRβ)” value is reported as “A (5<(TRα/TRβ))”.

As to `Cc1cc(NC(=O)C(=O)O)cc(C)c1Cc1ccc(O)c(C2CCCCC2)n1` [Example 19, ({4-[(6-cyclohexyl-5-hydroxypyridin-2-yl)methyl]-3,5-dimethylphenyl}amino)(oxo)acetic acid], in assay [1], the EC50 is 5 nM. Further, the “selectivity (TRα/TRβ)” value in assay [2] is on record as “B (2<(TRα/TRβ)<5)”.

Consider `Cc1cc(NC(=O)C(=O)O)c(C)c(C)c1Cc1ccc(O)c(C2CCCCC2)n1` [Example 20, ({4-[(6-cyclohexyl-5-hydroxypyridin-2-yl)methyl]-2,3,5-trimethylphenyl}amino)(oxo)acetic acid], for which the EC50 in assay [1] came to 4 nM. Also, in assay [2], the “selectivity (TRα/TRβ)” value is “C (2>(TRα/TRβ))”.

For `Cc1cc(OCc2noc(=O)[nH]2)c(C)c(C)c1Cc1ccc(O)c(C2CCCO2)n1` (stereo not shown) [Example 33, 3-[(4-{[5-hydroxy-6-(tetrahydrofuran-2-yl)pyridin-2-yl]methyl}-2,3,5-trimethylphenoxy)methyl]-1,2,4-oxadiazol-5(4H)-one], the EC50 in assay [1] was determined as 8 nM. Besides, in assay [2], the “selectivity (TRα/TRβ)” value is “B (2<(TRα/TRβ)<5)”.

Take `Cc1cc(OC(C)C(=O)O)c(C)c(C)c1Cc1ccc(O)c(C2CCCCC2)n1` (stereo not shown) [Example 15, 2-{4-[(6-cyclohexyl-5-hydroxypyridin-2-yl)methyl]-2,3,5-trimethylphenoxy}propanoic acid]: in assay [1], the EC50 was 9 nM. Moreover, in assay [2], the “selectivity (TRα/TRβ)” value is “B (2<(TRα/TRβ)<5)”.

As to `Cc1cc(OCC(=O)O)c(C)c(C)c1Cc1ccc(O)c(C2CCCCC2)n1` [Example 7, {4-[(6-cyclohexyl-5-hydroxypyridin-2-yl)methyl]-2,3,5-trimethylphenoxy}acetic acid], the EC50 in assay [1] came to 1 nM. In addition, in assay [2], the “selectivity (TRα/TRβ)” value was “A (5<(TRα/TRβ))”.

With `Cc1cc(OCc2noc(=O)[nH]2)c(F)c(C)c1Cc1ccc(O)c(N2CCCCC2)n1` [Example 118, 3-({2-fluoro-4-[(5-hydroxy-6-piperidin-1-ylpyridin-2-yl)methyl]-3,5-dimethylphenoxy}methyl)-1,2,4-oxadiazol-5(4H)-one], the EC50 in assay [1] amounted to 20 nM. Moreover, the “selectivity (TRα/TRβ)” value in assay [2] is reported as “B (2<(TRα/TRβ)<5)”.

With `Cc1cc(OCc2noc(=O)[nH]2)c(F)c(C)c1Cc1ccc(O)c(-c2ccc(F)c(F)c2F)n1` [Example 191, 3-{2-fluoro-4-[5-hydroxy-6-(2,3,4-trifluoro-phenyl)-pyridin-2-ylmethyl]-3,5-dimethyl-phenoxymethyl}-1,2,4-oxadiazol-5(4H)-one], the EC50 in assay [1] was 6 nM. Also, the “selectivity (TRα/TRβ)” value in assay [2] was “A (5<(TRα/TRβ))”.

As for `Cc1cc(NC(=O)CC(=O)O)c(Cl)c(C)c1Cc1ccc(O)c(C2CCCCC2)n1` [Example 54], the EC50 in assay [1] is 6 nM. For the same compound, the “selectivity (TRα/TRβ)” value in assay [2] was “A (5<(TRα/TRβ))”.

Take `Cc1cc(OCc2noc(=O)[nH]2)cc(C)c1Cc1ccc(O)c(C(C)C)n1` [Example 27, 3-({4-[(5-hydroxy-6-isopropylpyridin-2-yl)methyl]-3,5-dimethylphenoxy}methyl)-1,2,4-oxadiazol-5(4H)-one]: the EC50 in assay [1] worked out at 0.3 nM. Further, the “selectivity (TRα/TRβ)” value in assay [2] is reported as “C (2>(TRα/TRβ))”.

`Cc1cc(OCC(=O)O)c(F)c(C)c1Cc1ccc(O)c(C2CCCCC2)n1` [Example 12, {4-[(6-cyclohexyl-5-hydroxypyridin-2-yl)methyl]-2-fluoro-3,5-dimethylphenoxy}acetic acid]: the EC50 in assay [1] is 0.7 nM. Moreover, the “selectivity (TRα/TRβ)” value in assay [2] is on record as “B (2<(TRα/TRβ)<5)”.

On to `Cc1cc(OCC(=O)O)c(C)c(C)c1Cc1nc(C2CCCCC2)c(O)cc1F` [Example 73, {4-[(6-cyclohexyl-3-fluoro-5-hydroxypyridin-2-yl)methyl]-2,3,5-trimethylphenoxy}acetic acid], for which, in assay [1], the EC50 was 0.2 nM. The “selectivity (TRα/TRβ)” value in assay [2] is listed as “A (5<(TRα/TRβ))”.

Turning to `Cc1cc(NCC(=O)O)c(C)c(C)c1Cc1ccc(O)c(C2CCCCC2)n1` [Example 62, N-{4-[(6-cyclohexyl-5-hydroxypyridin-2-yl)methyl]-2,3,5-trimethylphenyl}glycine], in assay [1], the EC50 is 4 nM. In addition, the “selectivity (TRα/TRβ)” value in assay [2] is “B (2<(TRα/TRβ)<5)”.

Regarding `Cc1cc(OCC(=O)O)c(F)c(C)c1Cc1ccc(O)c(C(C)C)n1` [Example 11, {2-fluoro-4-[(5-hydroxy-6-isopropylpyridin-2-yl)methyl]-3,5-dimethylphenoxy}acetic acid], the EC50 in assay [1] came to 1 nM. The “selectivity (TRα/TRβ)” value in assay [2] was “B (2<(TRα/TRβ)<5)”.

In the case of `Cc1cc(OCc2noc(=O)[nH]2)c(C)c(C)c1Oc1ccc(O)c(C(C)C)n1` [Example 36, 3-({4-[(5-hydroxy-6-isopropylpyridin-2-yl)oxy]-2,3,5-trimethylphenoxy}methyl)-1,2,4-oxadiazol-5(4H)-one], the EC50 in assay [1] was found to be 3 nM. The “selectivity (TRα/TRβ)” value in assay [2] is listed as “C (2>(TRα/TRβ))”.

In the case of `COCC1(c2nc(Cc3c(C)cc(OCc4noc(=O)[nH]4)c(F)c3C)ccc2O)CCCCC1` [Example 268, 3-{[2-fluoro-4-({5-hydroxy-6-[1-(methoxymethyl)cyclohexyl]pyridin-2-yl}methyl)-3,5-dimethylphenoxy]methyl}-1,2,4-oxadiazol-5(4H)-one], the EC50 in assay [1] was 1 nM. Moreover, the “selectivity (TRα/TRβ)” value in assay [2] is “B (2<(TRα/TRβ)<5)”.

For `Cc1cc(OCc2noc(=O)[nH]2)c(C)c(C)c1Cc1ccc(O)c(C2CCCCO2)n1` (stereo not shown) [Example 35, 3-[(4-{[5-hydroxy-6-(tetrahydro-2H-pyran-2-yl)pyridin-2-yl]methyl}-2,3,5-trimethylphenoxy)methyl]-1,2,4-oxadiazol-5(4H)-one], the EC50 in assay [1] is 9 nM. Moreover, the “selectivity (TRα/TRβ)” value in assay [2] is listed as “B (2<(TRα/TRβ)<5)”.

On to `Cc1nc(OCC(=O)O)c(C)c(C)c1Cc1ccc(O)c(C2CCCCC2)n1` [Example 45, ({5-[(6-cyclohexyl-5-hydroxypyridin-2-yl)methyl]-3,4,6-trimethylpyridin-2-yl}oxy)acetic acid], for which the EC50 in assay [1] came out at 5 nM. The “selectivity (TRα/TRβ)” value in assay [2] was “A (5<(TRα/TRβ))”.

`Cc1cc(OCC(=O)O)c(C)c(C)c1Cc1ccc(O)c(C(=O)N(C)CCc2ccccc2)n1` [Example 80]: in assay [1], the EC50 came out at 100 nM. Besides, the “selectivity (TRα/TRβ)” value in assay [2] is given as “B (2<(TRα/TRβ)<5)”.

For the compound `Cc1cc(OCC(=O)O)c(Br)c(C)c1Cc1ccc(O)c(C2CCCCC2)n1` [Example 13, {2-bromo-4-[(6-cyclohexyl-5-hydroxypyridin-2-yl)methyl]-3,5-dimethylphenoxy}acetic acid], in assay [1], the EC50 was 0.3 nM. The “selectivity (TRα/TRβ)” value in assay [2] is recorded as “A (5<(TRα/TRβ))”.

As to `Cc1cc(-n2nc(C#N)c(=O)[nH]c2=O)cc(C)c1Cc1ccc(O)c(-c2ccccc2)n1` [Example 216, 2-{4-[(5-hydroxy-6-phenylpyridin-2-yl)methyl]-3,5-dimethylphenyl}-3,5-dioxo-2,3,4,5-tetrahydro-1,2,4-triazine-6-carbonitrile], the EC50 in assay [1] is 4 nM. The “selectivity (TRα/TRβ)” value in assay [2] was “A (5<(TRα/TRβ))”.

For `Cc1cc(NC(=O)CC(=O)O)cc(C)c1Cc1ccc(O)c(-c2ccccc2)n1` [Example 22, 3-({4-[(5-hydroxy-6-phenylpyridin-2-yl)methyl]-3,5-dimethylphenyl}amino)-3-oxopropanoic acid], in assay [1], the EC50 is 200 nM. In addition, in assay [2], the “selectivity (TRα/TRβ)” value is on record as “A (5<(TRα/TRβ))”.

Take `Cc1cc(OCC(=O)O)c(C)c(C)c1Cc1ccc(O)c(C2CCCCCC2)n1` [Example 92, {4-[(6-cycloheptyl-5-hydroxypyridin-2-yl)methyl]-2,3,5-trimethylphenoxy}acetic acid]: in assay [1], the EC50 was 1 nM. The “selectivity (TRα/TRβ)” value in assay [2] is reported as “A (5<(TRα/TRβ))”.
